Paper PMC8445441, “Elucidating the mechanism by which synthetic helper peptides sensitize Pseudomonas aeruginosa to multiple antibiotics” (PLoS Pathogens, 2021)
Where two headings read alike, the source gives them in different places.

Legend:
P. aeruginosa AUMC-Pa-3 = assay: microbe, parasite or virus in culture
Summary of the method: (§1)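 CLSI broth dilution; MHB; ~1 × 10^6 CFU/mL suspension mixed equal volume with drug; 37 °C for 18 h; visual read; triplicate. Broth sometimes supplemented with PG, PE, PC, CL, LPS, MgCl2, CaCl2 or PAβN.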

P. aeruginosa PAO1 = assay: microbe, parasite or virus in culture; conditions: PAO1; for FICI / MICac: the MIC for the antibiotic in the combination: S3 Table
Summary of the method: as §1

P. aeruginosa AUMC-Pa-6 = assay: microbe, parasite or virus in culture
Summary of the method: as §1

P. aeruginosa AUMC-Pa-4 = assay: microbe, parasite or virus in culture
Summary of the method: as §1

P. aeruginosa AUMC-Pa-5 = assay: microbe, parasite or virus in culture
Summary of the method: as §1

P. aeruginosa HM-214 = conditions: strain HM-214; antibiotic + D-11 (MICb/MICbc 128/4)
Summary of the method: as §1

P. aeruginosa AUMC-Pa-1 = conditions: strain AUMC-Pa-1; antibiotic + D-11 (MICb/MICbc 128/4)
Summary of the method: as §1

P. aeruginosa AUMC-Pa-2 = conditions: strain AUMC-Pa-2; antibiotic + D-11 (MICb/MICbc 64/4)
Summary of the method: as §1

P. aeruginosa PAK = assay: microbe, parasite or virus in culture; design: MICa: MIC of the antibiotic / MICac: MIC of the antibiotic in the combination: unit not given beside the values
Summary of the method: as §1

P. aeruginosa PA14 = assay: microbe, parasite or virus in culture; design: MICa: MIC of the antibiotic / MICac: MIC of the antibiotic in the combination: unit not given beside the values
Summary of the method: as §1

P. aeruginosa NR-31041 = assay: microbe, parasite or virus in culture; design: MICa: MIC of the antibiotic / MICac: MIC of the antibiotic in the combination: unit not given beside the values
Summary of the method: as §1

P. aeruginosa NR-31040 = assay: microbe, parasite or virus in culture; design: MICa: MIC of the antibiotic / MICac: MIC of the antibiotic in the combination: unit not given beside the values
Summary of the method: as §1

P. aeruginosa ATCC27853 = assay: microbe, parasite or virus in culture; design: MICa: MIC of the antibiotic / MICac: MIC of the antibiotic in the combination: unit not given beside the values
Summary of the method: as §1

[1] = system: clinical P. aeruginosa isolates; assay: microbe, parasite or virus in culture; conditions: Pseudomonas aeruginosa, 18 h, antibiotic alone
Summary of the method: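 MIC is the lowest drug concentration showing no visible growth after 18 h at 37 °C. Two-fold dilutions in MHB were combined with an equal volume of bacterial suspension (about 1 × 10^6 CFU/mL), following CLSI broth microdilution, in triplicate.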

With `CCn1cc(C(=O)O)c(=O)c2ccc(C)nc21` [Nalidixic Acid] the MIC (P. aeruginosa AUMC-Pa-3; Pseudomonas aeruginosa, AUMCPA3, 18 h, read-out: MICa: MIC of the antibiotic) was over 128 µM, the FICI (P. aeruginosa AUMC-Pa-3; strain AUMC-Pa-3, antibiotic + D-11 (MICb/MICbc 128/4)) was 0.063 and the “MICac: MIC of the antibiotic in the combination” value (shortened to “MICac: MIC of the antibiotic”) (P. aeruginosa AUMC-Pa-3; strain AUMC-Pa-3, with D-11 at MICbc 4, unit not given) was 8. For the same compound, the MIC (P. aeruginosa PAO1; Pseudomonas aeruginosa, PAO1, 18 h, read-out: MICa: the MIC of antibiotics, S3 Table, antibiotic alone) was over 128 µM, the FICI (P. aeruginosa PAO1; antibiotic + 2 μM D-11) was 0.094 and the FICI (P. aeruginosa PAO1; antibiotic + 4 μM D-11) was 0.141. For the same compound, the “MICac: the MIC for the antibiotic in the combination” value (P. aeruginosa PAO1; with 2 μM D-11) was 8 µM, the “MICac: the MIC for the antibiotic in the combination” value (P. aeruginosa PAO1; with 4 μM D-11) was 4 µM and the MIC (P. aeruginosa AUMC-Pa-6; Pseudomonas aeruginosa, AUMCPA6, 18 h, read-out: MICa: MIC of the antibiotic) was over 128 µM. The FICI (P. aeruginosa AUMC-Pa-6; strain AUMC-Pa-6, antibiotic + D-11 (MICb/MICbc 64/4)) was 0.188, the “MICac: MIC of the antibiotic” value (P. aeruginosa AUMC-Pa-6; strain AUMC-Pa-6, with D-11 at MICbc 4, unit not given) was 32 and the MIC (P. aeruginosa AUMC-Pa-4; Pseudomonas aeruginosa, AUMCPA4, 18 h, read-out: MICa: MIC of the antibiotic) was over 128 µM. The FICI (P. aeruginosa AUMC-Pa-4; strain AUMC-Pa-4, antibiotic + D-11 (MICb/MICbc 128/4)) was 0.531, the “MICac: MIC of the antibiotic” value (P. aeruginosa AUMC-Pa-4; strain AUMC-Pa-4, with D-11 at MICbc 4, unit not given) was >128/128 and the MIC (P. aeruginosa AUMC-Pa-5; Pseudomonas aeruginosa, AUMCPA5, 18 h, read-out: MICa: MIC of the antibiotic) was over 128 µM. For the same compound, the FICI (P. aeruginosa AUMC-Pa-5; strain AUMC-Pa-5, antibiotic + D-11 (MICb/MICbc 64/4)) was 1.063, the “MICac: MIC of the antibiotic” value (P. aeruginosa AUMC-Pa-5; strain AUMC-Pa-5, with D-11 at MICbc 4, unit not given) was >128/>128 and the FICI (P. aeruginosa HM-214) was 0.531. The FICI (P. aeruginosa AUMC-Pa-1) was 0.531, the FICI (P. aeruginosa AUMC-Pa-2) was 0.188 and the MIC (P. aeruginosa PAK; Pseudomonas aeruginosa, 18 h, read-out: MICa: MIC of the antibiotic) was over 128 µM. For the same compound, the FICI (P. aeruginosa PAK; strain PAK, antibiotic + D-11 (MICb/MICbc 64/4)) was 0.125, the “MICac: MIC of the antibiotic” value (P. aeruginosa PAK; strain PAK, with D-11 at MICbc 4, unit not given) was 16 and the MIC (P. aeruginosa PA14; Pseudomonas aeruginosa, PA14, 18 h, read-out: MICa: MIC of the antibiotic) was over 128 µM. The FICI (P. aeruginosa PA14; strain PA14, antibiotic + D-11 (MICb/MICbc 128/4)) was 0.094, the “MICac: MIC of the antibiotic” value (P. aeruginosa PA14; strain PA14, with D-11 at MICbc 4, unit not given) was 16 and the MIC (P. aeruginosa NR-31041; Pseudomonas aeruginosa, NR31041, 18 h, read-out: MICa: MIC of the antibiotic) was over 128 µM. The FICI (P. aeruginosa NR-31041; strain NR-31041, antibiotic + D-11 (MICb/MICbc 64/4)) was 0.125, the “MICac: MIC of the antibiotic” value (P. aeruginosa NR-31041; strain NR-31041, with D-11 at MICbc 4, unit not given) was 16 and the MIC (P. aeruginosa NR-31040; Pseudomonas aeruginosa, NR31040, 18 h, read-out: MICa: MIC of the antibiotic) was over 128 µM. For the same compound, the FICI (P. aeruginosa NR-31040; strain NR-31040, antibiotic + D-11 (MICb/MICbc 128/4)) was 0.063, the “MICac: MIC of the antibiotic” value (P. aeruginosa NR-31040; strain NR-31040, with D-11 at MICbc 4, unit not given) was 8 and the MIC (P. aeruginosa ATCC27853; Pseudomonas aeruginosa, ATCC27853, 18 h, read-out: MICa: MIC of the antibiotic) was over 128 µM. For the same compound, the FICI (P. aeruginosa ATCC27853; strain ATCC27853, antibiotic + D-11 (MICb/MICbc 32/4)) was 0.156, the “MICac: MIC of the antibiotic” value (P. aeruginosa ATCC27853; strain ATCC27853, with D-11 at MICbc 4, unit not given) was 8 and the MIC ([1]; read-out: Antibiotic sensibility (MIC) of clinical P. aeruginosa isolate AUMC-Pa-1, strain AUMC-Pa-1) was over 128 µM. For the same compound, the MIC ([1]; read-out: Antibiotic sensibility (MIC) of clinical P. aeruginosa isolate AUMC-Pa-2, strain AUMC-Pa-2) was over 128 µM, the MIC ([1]; read-out: Antibiotic sensibility (MIC) of clinical P. aeruginosa isolate AUMC-Pa-3, strain AUMC-Pa-3) was over 128 µM and the MIC ([1]; read-out: Antibiotic sensibility (MIC) of clinical P. aeruginosa isolate AUMC-Pa-4, strain AUMC-Pa-4) was over 128 µM. For the same compound, the MIC ([1]; read-out: Antibiotic sensibility (MIC) of clinical P. aeruginosa isolate AUMC-Pa-5, strain AUMC-Pa-5) was over 128 µM, the MIC ([1]; read-out: Antibiotic sensibility (MIC) of clinical P. aeruginosa isolate AUMC-Pa-6, strain AUMC-Pa-6) was over 128 µM and the MIC ([1]; read-out: Antibiotic sensibility (MIC) of clinical P. aeruginosa isolate HM-214, strain HM-214) was over 128 µM. For the same compound, the MIC ([1]; read-out: Antibiotic sensibility (MIC) of clinical P. aeruginosa isolate NR-31040, strain NR-31040) was over 128 µM and the MIC ([1]; read-out: Antibiotic sensibility (MIC) of clinical P. aeruginosa isolate NR-31041, strain NR-31041) was over 128 µM.
